According to ChEMBL document CHEMBL3576772, “Fibroblast Growth Factor Receptor 3 (FGF-R3): A Promising Therapeutic Target for the Treatment of Bladder Cancer” (2015):

What was measured:
[1] = Inhibition of serum-induced proliferation of human TCC97-7 cells carrying FGFR3 Ser249Cys mutation at 10 uM after 3 days; type: functional; settings: TCC97-7, 72 h
[2] = test system: Fibroblast growth factor receptor 3 (Homo sapiens), P22607 [S249C]; experiment: Antagonist activity against FGFR3 Ser249Cys mutant in human TCC97-7 cells cultured in serum-supplemented medium assessed as reduction in ATP content at 10 um after 3 days by cell titer-Glo luminescent cell viability assay; type: cell-based
Fibroblast growth factor receptor 3 (Homo sapiens), P22607 [S249C], sequence (P22607 whole entry S249C): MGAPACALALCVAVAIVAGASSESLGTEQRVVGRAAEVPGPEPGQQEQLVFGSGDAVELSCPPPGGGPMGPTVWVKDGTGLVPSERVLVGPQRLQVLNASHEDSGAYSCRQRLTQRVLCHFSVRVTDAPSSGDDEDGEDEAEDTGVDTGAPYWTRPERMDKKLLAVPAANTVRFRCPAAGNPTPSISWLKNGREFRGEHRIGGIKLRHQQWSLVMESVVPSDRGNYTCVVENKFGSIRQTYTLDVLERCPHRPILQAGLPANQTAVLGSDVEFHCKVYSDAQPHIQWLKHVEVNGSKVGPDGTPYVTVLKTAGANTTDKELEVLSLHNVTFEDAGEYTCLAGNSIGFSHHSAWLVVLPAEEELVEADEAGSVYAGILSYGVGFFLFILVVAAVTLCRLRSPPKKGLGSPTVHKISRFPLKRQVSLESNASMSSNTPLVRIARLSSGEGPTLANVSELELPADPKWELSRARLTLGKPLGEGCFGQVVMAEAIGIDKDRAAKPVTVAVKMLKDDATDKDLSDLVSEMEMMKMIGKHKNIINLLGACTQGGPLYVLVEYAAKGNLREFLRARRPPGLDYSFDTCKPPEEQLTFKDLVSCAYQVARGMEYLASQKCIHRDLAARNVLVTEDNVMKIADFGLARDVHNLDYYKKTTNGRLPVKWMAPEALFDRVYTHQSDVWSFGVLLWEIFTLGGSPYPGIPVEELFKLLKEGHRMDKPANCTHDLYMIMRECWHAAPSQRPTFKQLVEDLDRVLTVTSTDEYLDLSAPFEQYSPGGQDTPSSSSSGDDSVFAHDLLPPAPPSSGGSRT

[3] = Inhibition of serum-induced proliferation of human TCC97-7 cells carrying FGFR3 Ser249Cys mutation at 1 uM after 3 days; type: functional; settings: TCC97-7, 72 h
[4] = test system: Fibroblast growth factor receptor 3 (Homo sapiens), P22607 [S249C]; experiment: Antagonist activity against FGFR3 Ser249Cys mutant in human TCC97-7 cells cultured in serum-supplemented medium assessed as reduction in ATP content at 1 um after 3 days by cell titer-Glo luminescent cell viability assay; type: cell-based

Structure (SMILES): O=c1[nH]c2ccc(-c3cc(C(F)(F)F)c4c(-c5ccccc5)n[nH]c4n3)cc2[nH]1
- inhibition at 10 µM [1]: 29%
- inhibition [2]: 19%
- inhibition at 1 µM [3]: -3%

Structure (SMILES): Cn1nc(-c2ccccc2)c2c(C(F)(F)F)cc(-c3cccc(C(N)=O)c3)nc21
- inhibition at 10 µM [1]: 91.6%
- inhibition [2]: 41.1%
- inhibition at 1 µM [3]: 8%
- inhibition [4]: 10.9%

Structure (SMILES): Cn1nc(-c2ccccc2)c2c(C(F)(F)F)cc(-c3ccc(C(=O)O)cc3)nc21
- inhibition at 10 µM [1]: 33%
- inhibition [2]: 40%
- inhibition at 1 µM [3]: 8%
- inhibition [4]: 17%

Structure (SMILES): O=C(c1cccc(-c2cc(C(F)F)c3c(-c4ccccc4)n[nH]c3n2)c1)N1CCCC1
- inhibition at 10 µM [1]: 83.9%
- inhibition [2]: 90.5%
- inhibition at 1 µM [3]: 16.2%
- inhibition [4]: 26.9%
